Where two headings read alike, the source gives them in different places. Where a SMILES comes first, the peptide text is derived from it.
Biological target: T1, TPO-R (Homo sapiens, UniProt P40238)
T1 construct: made in house
T1 sequence (P40238 26-491 limits assumed): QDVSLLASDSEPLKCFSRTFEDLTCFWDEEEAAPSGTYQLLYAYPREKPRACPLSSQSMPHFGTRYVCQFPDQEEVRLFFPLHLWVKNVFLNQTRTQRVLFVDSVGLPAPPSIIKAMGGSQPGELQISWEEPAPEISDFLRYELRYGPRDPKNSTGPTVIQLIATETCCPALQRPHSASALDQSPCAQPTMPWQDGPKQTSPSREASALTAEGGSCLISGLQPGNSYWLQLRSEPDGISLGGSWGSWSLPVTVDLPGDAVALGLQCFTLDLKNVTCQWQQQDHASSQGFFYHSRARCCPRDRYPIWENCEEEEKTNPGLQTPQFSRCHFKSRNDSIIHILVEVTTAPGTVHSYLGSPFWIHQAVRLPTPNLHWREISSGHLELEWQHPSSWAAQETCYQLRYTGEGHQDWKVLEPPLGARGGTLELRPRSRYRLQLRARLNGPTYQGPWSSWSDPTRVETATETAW
Experiment: competition binding assay: MBP-TPO156 binding to immobilized TPO-R (ELISA)
Details: read-out: IC50
Protocol: A variety of methods can be used to evaluate IC50 values. For example, an equilibrium binding ELISA assay, using either MBP-TPO or lacI-peptide tracer, was used to determine whether the peptides inhibit the binding of TPO to the extracellular domain of the TPO receptor. Typically, the IC50 value were determined using the free peptide. The IC50value can be determined using the free peptide, which optionally can be C-terminally amidated, or can be prepared as an ester or other carboxy amide.
Binding affinities of chemically synthesized peptides for TPO-R were measured in a competition binding assay. The wells of a microtiter plate were coated with 1 mg streptavidin, blocked with PBS/1% BSA, followed by 50 ng of biotinylated anti-receptor immobilizing antibody (Ab179). The wells were then treated with a 1:10 dilution of soluble TPO-R harvest. Various concentrations of peptide or peptide mimetic were mixed with a constant amount of a truncated form of TPO consisting of residues 1–156 fused to the C-terminus of maltose binding protein (MBP-TPO156). The peptide MBP-TPO156 mixtures were added to the TPO-R coated wells, incubated for 2 hours at 4° C. and then washed with PBS. The amount of MBP-TPO156 that was bound at equilibrium was measured by adding a rabbit anti-sera directed against MBP, followed by alkaline phosphatase conjugated goat anti-rabbit IgG. The amount of alkaline phosphatase in each well was then determined using standard methods.
The assay is conducted over a range of peptide concentrations and the results are graphed such that the y axis represents the amount of bound MBP-TPO156 and the x axis represents the concentration of peptide or peptide mimetic.

Structure (SMILES)	IC50 (Table 7, dimer compounds) [µM]	IC50 (Table 4, cyclized compounds) [µM]
CSCC[C@H](N)C(=O)N[C@H](C(=O)NCC(=O)N1CCC[C@H]1C(=O)N[C@H](C(=O)N[C@@H](CC(C)C)C(=O)N[C@@H](CCCNC(=N)N)C(=O)N[C@@H](CO)C(=O)NCC(=O)N[C@@H](CSSC[C@H](NC(=O)CNC(=O)[C@H](CO)NC(=O)[C@H](CCCNC(=N)N)NC(=O)[C@H](CC(C)C)NC(=O)[C@@H](NC(=O)[C@@H]1CCCN1C(=O)CNC(=O)[C@@H](NC(=O)[C@@H](N)CCSC)C(C)C)[C@@H](C)O)C(N)=O)C(N)=O)[C@@H](C)O)C(C)C (HELM PEPTIDE1{M.V.G.P.T.L.R.S.G.C.[am]}|PEPTIDE2{M.V.G.P.T.L.R.S.G.C.[am]}$PEPTIDE1,PEPTIDE2,10:R3-10:R3$$$V2.0)	200	
CC(C)C[C@H](NC(=O)[C@H](Cc1c[nH]c2ccccc12)NC(=O)[C@H](CCC(N)=O)NC(=O)[C@H](CCCNC(=N)N)NC(=O)[C@H](CC(C)C)NC(=O)[C@@H](NC(=O)[C@@H]1CCCN1C(=O)CNC(=O)[C@H](CSSC[C@H](NC(=O)[C@H](CCC(N)=O)NC(=O)[C@@H](NC(=O)[C@@H](N)CO)C(C)C)C(=O)NCC(=O)N1CCC[C@H]1C(=O)N[C@H](C(=O)N[C@@H](CC(C)C)C(=O)N[C@@H](CCCNC(=N)N)C(=O)N[C@@H](CCC(N)=O)C(=O)N[C@@H](Cc1c[nH]c2ccccc12)C(=O)N[C@@H](CC(C)C)C(=O)N[C@@H](C)C(=O)N[C@@H](C)C(=O)N[C@@H](CCCNC(=N)N)C(=O)N[C@@H](CC(N)=O)C(=O)N[C@@H](Cc1c[nH]cn1)C(=O)N[C@@H](CC(C)C)C(=O)N[C@@H](CO)C(N)=O)[C@@H](C)O)NC(=O)[C@H](CCC(N)=O)NC(=O)[C@@H](NC(=O)[C@@H](N)CO)C(C)C)[C@@H](C)O)C(=O)N[C@@H](C)C(=O)N[C@@H](C)C(=O)N[C@@H](CCCNC(=N)N)C(=O)N[C@@H](CC(N)=O)C(=O)N[C@@H](Cc1c[nH]cn1)C(=O)N[C@@H](CC(C)C)C(=O)N[C@@H](CO)C(N)=O (HELM PEPTIDE1{S.V.Q.C.G.P.T.L.R.Q.W.L.A.A.R.N.H.L.S.[am]}|PEPTIDE2{S.V.Q.C.G.P.T.L.R.Q.W.L.A.A.R.N.H.L.S.[am]}$PEPTIDE1,PEPTIDE2,4:R3-4:R3$$$V2.0)	≤ 0.5	
CC[C@H](C)[C@@H]1NC(=O)[C@H](Cc2c[nH]c3ccccc23)NC(=O)[C@H](CCC(=O)O)NC(=O)[C@H](CCCNC(=N)N)NC(=O)[C@H](CC(C)C)NC(=O)[C@H]([C@@H](C)O)NC(=O)[C@@H]2CCCN2C(=O)CNC(=O)[C@H](CC(=O)O)NC(=O)[C@H](C)NC(=O)CSC[C@@H](C(N)=O)NC(=O)[C@H](Cc2ccccc2)NC(=O)[C@H](CO)NC1=O (HELM PEPTIDE1{[O=C(C[*:3])[*:2]].A.D.G.P.T.L.R.E.W.I.S.F.C.[am]}$PEPTIDE1,PEPTIDE1,1:R3-14:R3$$$V2.0)		≤ 0.5
CC[C@H](C)[C@H](NC(=O)[C@H](Cc1c[nH]c2ccccc12)NC(=O)[C@H](CCC(=O)O)NC(=O)[C@H](CCCNC(=N)N)NC(=O)[C@H](CC(C)C)NC(=O)[C@@H](NC(=O)[C@@H]1CCCN1C(=O)CNC(=O)[C@H](CC(=O)O)NC(=O)[C@H](C)NC(C)=O)[C@@H](C)O)C(=O)N[C@@H](CO)C(=O)N[C@@H](Cc1ccccc1)C(=O)N[C@@H](CSSC[C@H](NC(=O)[C@H](Cc1ccccc1)NC(=O)[C@H](CO)NC(=O)[C@@H](NC(=O)[C@H](Cc1c[nH]c2ccccc12)NC(=O)[C@H](CCC(=O)O)NC(=O)[C@H](CCCNC(=N)N)NC(=O)[C@H](CC(C)C)NC(=O)[C@@H](NC(=O)[C@@H]1CCCN1C(=O)CNC(=O)[C@H](CC(=O)O)NC(=O)[C@H](C)NC(C)=O)[C@@H](C)O)[C@@H](C)CC)C(N)=O)C(N)=O (HELM PEPTIDE1{[ac].A.D.G.P.T.L.R.E.W.I.S.F.C.[am]}|PEPTIDE2{[ac].A.D.G.P.T.L.R.E.W.I.S.F.C.[am]}$PEPTIDE1,PEPTIDE2,14:R3-14:R3$$$V2.0; C-terminus assumed)	≤ 0.5	

Source: patent publication US7091311B2, “Peptides and compounds that bind to a receptor” (SmithKline Beecham Corporation, priority 1996, dated 2006)
